In this experiment the test system is gastric acid secretion induced by the administration of pentagastrin. The experiment is described as follows: Inhibition of pentagastrin-induced gastric acid secretion in anesthetized rats with perfused stomach (modified Ghosh and Schild). Type of experiment: in vivo. Set-up: key to rating in assay: antagonism of the secretory response induced by pentagastrin: A test compound is considered active if the standard pentagastrin response is blocked to the extent of at least 50%. To be noted: urethane-anesthetized male Charles River rats, gastric effluent pH, pentagastrin 0.1 mcg./rat intravenously. An excerpt: The compounds of the present invention are useful in consequence of their valuable pharmacological properties. They are, for example, gastric anti-secretory agents as evidenced by their ability to inhibit the gastric acid secretion induced by the administration of pentagastrin.
The assay utilized for detection of that property is a modification of the procedure described by Ghosh and Schild, J. Physiol., Lond., 128:35-36P (1955); Br. J. Pharmacol. Chemother., […]:54-61 (1958); and by Smith et al., Br. J. Pharmacol., 38:206-213 (1970). The details of that assay are as follows:
A group of male Charles River rats weighing 300-400 g. are anesthetized by the intramuscular administration of urethane at a dose of 1.5 g./kg. The trachea is exposed and cannulated and a polyethylene tube is passed through the esophagus into the cardiac junction of the stomach and is ligated in place in the neck, excluding the vagal nerves. The external jugular vein is exposed and cannulated to facilitate intravenous administration. The femoral artery is exposed and cannulated for recording of blood pressure. The abdomen is opened. […] The test compounds are evaluated for their ability to antagonize the secretory response induced by the administration of pentagastrin. […]

Non-standard residues stand in square brackets, D forms with d. Residues, ends and D or L forms follow the SMILES beside them. *: point of attachment. Boc = CC(C)(C)OC(=O)*

With `CSCC[C@H](NC(=O)OC(C)(C)C)C(=O)N[C@@H](CC(=O)O)C(=O)N[C@H](C)C(N)=O` [N-t-butoxycarbonyl-L-methionyl-L-aspartyl-D-alanine amide] (Boc-Met-Asp-[dA]-NH2), the “inhibition of gastric acid secretion induced by pentagastrin (result in words)” value was “particularly active”. On to `CSCC[C@H](NC(=O)[C@H](Cc1c[nH]c2ccccc12)NC(=O)OC(C)(C)C)C(=O)N[C@@H](CC(=O)O)C(=O)N[C@H](C)C(N)=O` [N-t-butoxycarbonyl-L-tryptophanyl-L-methionyl-L-aspartyl-D-alanine amide] (Boc-WMD[dA]-NH2), for which the “rating in assay: antagonism of the secretory response induced by pentagastrin” value is reported as “active”.

Values taken from patent publication US4012367A, “Anti-ulcer polypeptides containing L-aspartic acid and intermediates thereto” (G. D. Searle & Co., priority 1976, dated 1977).
